Results from a melting point compilation (Tetko et al.; mined from patent text by program, amines drawn as free bases though some values may be those of a salt).

Structure (SMILES)	melting point [°C]
O=C(c1cccs1)c1cnn2c(-c3cccc(-c4cc[nH]n4)c3)ccnc12	129
NC(=O)CC(O)(Cn1cncn1)C(F)(F)C(F)(F)C(F)(F)C(F)(F)F (stereo not given)	145 to 146
CC1(C)COC(CCc2ccc(N)cc2)OC1	93.5 to 94.5
NC(=O)c1nnn(Cc2ccccc2F)c1C(N)=O	49 to 51
CC(=O)Nc1cc(-c2ccc(S(C)(=O)=O)cc2)c(-c2ccc(F)cc2)s1	80 to 92
CCn1nc(-c2ccccc2)c(C(C)=O)c(Nc2ccc([N+](=O)[O-])cn2)c1=O	200 to 201
ClCc1coc(-c2ccc3oc(-c4ccccc4)nc3c2)n1	194 to 195
CSc1cccc(CNC(=O)c2nc3scc(COCc4ccc(C(=O)O)cc4)c3c(=O)[nH]2)c1	252 to 254
Cc1nsc(NC(=O)C(C)c2ccc(O)c(N)c2)c1Cl (stereo not given)	222 to 223
CC(CO)(CO)NS(=O)(=O)c1cc(NC(=O)c2cnn3c(C(F)F)cc(-c4ccc(C(F)(F)F)cc4)nc23)c(Cl)s1	237
CCOC(=O)c1cc(-c2ccc(Cl)cc2Cl)c(-c2ccc(Cl)cc2)nc1C	114
CC(C)n1nc(-c2sc(C(=O)NCCc3ccccn3)nc2-c2ccc(F)cc2)ccc1=O	144 to 145
Cc1cc(-c2ccc(C(F)(F)F)nc2)nc(-c2cccc(-c3cccc(S(N)(=O)=O)c3)n2)n1	254
Nc1ncnc2c1c(-c1cc(O)cc(F)c1)nn2Cc1oc2ccc(F)cc2c(=O)c1-c1cccc(F)c1	127 to 129
OC1N=C(c2ccccc2Cl)c2cc(Cl)ccc2-c2ncncc21 (stereo not given)	105 to 117
CCCCCCCCOc1cc(-c2cccc(C(F)(F)F)c2)c(OCC(=O)O)c(-c2cccc(C(F)(F)F)c2)c1	75 to 77
CCc1nc2c(cnn2CC)c(NC2CCOCC2)c1CNC(=O)c1cccc(C(=O)NCc2ccc(OC)c(-c3cccc(CN4CCCN(C)CC4)c3)c2)c1	116 to 119
OCCCNc1nnc(NCCCO)c2cc3ccccc3cc12	225 to 228
Nc1oc2ccc([N+](=O)[O-])cc2c(=O)c1C=O	228 to 229

Structure (SMILES)	melting point [°C]
O=C1CC(c2cccc(-n3ccnc3)c2)=Nc2cc(N3CC[C@@H](O)C3)c(-c3ccc(F)cc3)cc2N1	155 to 158
COC(=O)c1cc(-c2ncco2)ccc1-c1ccccc1S(=O)(=O)Nc1onc(C)c1C	106 to 112
Cc1ccnc(NC(c2ccc(C(F)(F)F)cc2)c2ccc3cccnc3c2O)n1 (stereo not given)	144 to 147
CCC(=O)Nc1c(C#N)cnn1-c1nc(NCc2ccccc2)c(C(F)(F)F)cc1Cl	139 to 142
Cc1cccc(C)c1CNc1cc(Br)cc2c1nc(C)n2COCc1ccccc1	147 to 148
Cc1cc(COc2nn3c(-c4cc(C)on4)nnc3c3ccccc23)no1	243 to 245
COc1cc2sc(C(N)=O)cc2c(Cl)c1OC	180 to 182
N#CN=C(NCCSCc1ncccc1Br)NCCSCc1ncccc1Br	118 to 119
O=C(O)C(NC(=O)C(F)(F)F)c1ccc(Cl)cc1 (stereo not given)	170 to 172
COCCNc1c([N+](=O)[O-])cc(C(F)(F)F)c(Cl)c1[N+](=O)[O-]	106 to 108
CCc1nnc(-c2ccc(O)cc2)n1-c1ccccc1	275
CCc1cccc(C(=O)NN(C(=O)c2cc(C)cc(C)c2)C(C)(C)C)c1C	167 to 169
COCCOCc1nn(C)c2c1N=C(c1ccc(-n3c(C)nc4cnccc43)cc1)CC(=O)N2C	142 to 144
COc1ccc(-c2cn(-c3cccc(OCCCl)c3)c3ncnc(N)c23)cc1OCc1ccccc1	170
CNS(=O)(=O)c1cc2c(c(C(=O)NC3CCN(C4CCCCC4)C3)c1)OCCO2 (stereo not given)	160 to 161
CCc1ccc2oc(C(=O)Nc3ccc(-c4ccc(S(=O)(=O)NC(C(=O)OC)C(C)C)cc4)cc3)c(C)c2c1OC (stereo not given)	170 to 172
Cc1ccc(C(=O)NCCCN(C)CCCNC(=O)c2ccc(C)c3nc4ccccc4nc23)c2nc3ccccc3nc12	218 to 220
CCCCCc1c(O)ccc2c1OCCC2=O	132 to 134
Cc1nc2c(Cl)cnn2c(Cl)c1CCCl	115 to 117

The remaining lines, values ahead:

melting point [°C]	Structure (SMILES)
114	COc1ccc(C2=NN(C3CCN(S(=O)(=O)Cc4ccccc4)CC3)C(=O)CC2)cc1OC
144 to 146	O=C1CCCCc2ccc(N3C[C@H](CO)OC3=O)cc21
169 to 170	COC(C(=O)O)c1ccc(OCc2ccccn2)cc1 (stereo not given)
71 to 72	COc1ccc2c(c1)C(=O)C(Cc1ccccc1)CO2 (stereo not given)
117 to 118	CC(=O)OCc1nc(C(Cl)Cl)cnc1N1C(=O)c2ccccc2C1=O
205 to 206	C[C@]12C=CC(=O)N[C@@H]1CCc1cc(-c3cccc([N+](=O)[O-])c3)ccc12
142 to 144	CC(=O)ON=C1CCCN(C(=O)c2ccc(NC(=O)c3ccccc3Cl)cc2)c2ccccc21
127 to 129	COC(=O)C(OC)Oc1ccc(C2CCN(c3ccncc3)CC2)cc1 (stereo not given)
118 to 119	CCOC(=O)c1ccc(C(C(N)=O)C(CCc2ccccc2)c2ccccc2N2CCCCC2)cc1 (stereo not given)
134 to 139	CCOC(=O)C1=C(C)NC(c2scnc2C)=NC1c1ccc(F)cc1Cl (stereo not given)
102 to 103	CCOC(=O)COc1ccc(Cc2ccc(O)cc2)c(Cl)c1Cl
263 to 265	Oc1cccc2c1CCC(n1cc[nH]c1=S)C2 (stereo not given)
82 to 84	CC#CCOc1ccc(S(=O)(=O)NC2(C(=O)NO)CCCCC2)cc1
99 to 101	O=C1CCCCC1c1ccncc1 (stereo not given)
160 to 162	CC1(C)CCC(C)(C)c2cc(-c3cc(-c4ccc(C(=O)O)nc4)ccc3-c3ccccc3)ccc21
174 to 177	OC1(c2ccncc2)c2ccccc2CCc2ccccc21
230 to 233	Cc1ccc(C(=O)NC(NC(=O)Nc2ccccc2)C(Cl)(Cl)Cl)cc1 (stereo not given)
125	COc1ccc2c(c1)[C@@]1(C(=O)O)CC=CC[C@H]1CC2 (relative stereo)
169	COc1cc2c(CC(=O)O)c(C)n(C(=O)c3ccc(Cl)s3)c2cc1F
147 to 149	O=C1N(CC2COCCO2)c2ccccc2C12COc1cc3c(cc12)OCO3 (stereo not given)
115 to 120	COc1ccc(C(=O)Nc2ccc3ccc(Oc4ccccc4)nc3n2)cn1
59 to 61	CN(C(=O)c1ccnc(Cl)c1)c1ccccc1N1CCN(C(=O)OC(C)(C)C)CC1
118 to 122	O=[N+]([O-])c1ccc(Oc2ccc(C34CC5CC(C3)CC(c3ccc(Oc6ccc([N+](=O)[O-])c(O)c6)cc3)(C5)C4)cc2)cc1O
173 to 176	CC1(O)CC(=O)OC(c2ccc(-c3ccccc3)cc2)C1Br (stereo not given)
144 to 146	COC(=O)c1cccc2c1c1c(OC)c3c(cc1n2Cc1ccccc1)CCCC3
45 to 47	BrCCCCCCCOc1ccc2c(c1)OCO2
210 to 211	CC(C)(C)OC(=O)Nc1cccc(C2CCN(c3nc4c(cc3F)c(=O)c(C(=O)O)cn4C3CC3)C2)c1 (stereo not given)
